Assay [1] concerns human breast cancer cell line JIMT-1. Nature of the assay: Antitumor test (2), subcutaneous xenograft. Format: in vivo, mouse. The following applies: single administration. How it is done:
Mouse: Five- to six-week-old female BALB/c nude mice (Charles River Laboratories Japan, Inc.) were subjected to experiment. Assay and calculation formula: In all of the studies, the major axis and minor axis of a tumor were measured twice a week by using an electronic digital caliper ([…] Corp.), and the tumor volume (mm^3) was calculated. The calculation formula is as shown below. [formula] Each of the anti-CLDN6 antibody-drug conjugate ADC1, the anti-HER2 antibody-drug conjugate ADC2, and the anti-TROP2 antibody-drug conjugate ADC3 was diluted with ABS buffer (10 mM acetate buffer (pH 5.5), 5% sorbitol), and a liquid volume of 10 mL/kg was intravenously administered into the tail vein. […] LLC)/Dulbecco's Phosphate-Buffered Saline, and then a liquid volume of 10 mL/kg was intraperitoneally administered. […] LLC)/Dulbecco's Phosphate-Buffered Saline, and then a liquid volume of 10 mL/kg was orally administered. Niraparib was dissolved in DMSO, diluted with 0.5% methylcellulose, and then a liquid volume of 10 mL/kg was orally administered. The described method is common to Examples 34 to 37. […]

Assay [2] concerns human pharyngeal cancer cell line FaDu. Nature of the assay: Cell growth inhibition test (2). Type of assay: cell-based. The following applies: 144 h. How it is done: The human pharyngeal cancer cell line FaDu obtained from ATCC (American Type Culture Collection) was used for evaluation. Cells were prepared with MEM containing 10% fetal bovine serum (GE Healthcare), MEM Non-Essential Amino Acids Solution (Thermo Fisher Scientific), and Sodium Pyruvate (Thermo Fisher Scientific) (Thermo Fisher Scientific; hereinafter, referred to as EMEM medium) to reach 6.25×10^3 cells/mL, and 80 μL portions of them were added into a 96-well cell culture microplate. After addition of the cells, the cells were cultured at 37° C. and 5% CO2 overnight.
On the next day, 10 μL portions of pyrrolobenzodiazepine derivative A, B, or C diluted with EMEM medium to 100 pM, 50 pM, 25 pM, 12.5 pM, 6.25 pM, 3.13 pM, 1.56 pM, or 0.78 pM were added to the microplate. To each well without any pyrrolobenzodiazepine derivative, 10 μL of EMEM medium was added. Further, 10 μL portions of olaparib prepared with EMEM medium to reach 1 μM were added to the microplate. To each well without olaparib, 10 μL of EMEM medium was added. Thereafter, the microplate was cultured at 37° C. and 5% CO2 for 6 days. After culturing, the microplate was taken out of the incubator, and left to stand at room temperature for 30 minutes. CellTiter-Glo Luminescent Cell Viability Assay (Promega Corporation) in an amount equivalent to that of the culture solution was added, and stirred using a plate mixer. The microplate was left to stand at room temperature for 10 minutes, and thereafter the amount of emission was measured by using a plate reader (PerkinElmer).
Cell survival rates in wells with derivative A, B, or […] were calculated by using the following formula.
[formula] • a: Mean value of amounts of emission from wells with derivative A, B, or C • b: Mean value of amounts of emission from wells with medium • IC50 values were calculated by using the following formula.
[formula] • a: Concentration of derivative A, B, or C, a • b: Concentration of derivative A, B, or C, b • c: Cell survival rate when derivative A, B, or C of concentration a was added • d: Cell survival rate when derivative A, B, or C of concentration b was added • a and b satisfy a>b at points sandwiching a cell survival rate of 50%.
Cell survival rates in wells with derivative A, B, or C added together with 1 μM olaparib were calculated by using the following formula.
[formula] • a: Mean value of amounts of emission from wells with derivative A, B, or C added together with 1 μM olaparib • b: Mean value of amounts of emission from wells with 1 μM olaparib • IC50 values were calculated by using the following formula.
[formula] • a: Concentration of derivative A, B, or C, a • b: Concentration of derivative A, B, or C, b • c: Cell survival rate when derivative A, B, or C of concentration a and 1 μM olaparib were added • d: Cell survival rate when derivative A, B, or C of concentration b and 1 μM olaparib were added • a and b satisfy a>b at points sandwiching a cell survival rate of 50%.

Read-outs that look alike come from different tables or passages of the source.

Usually IC50 stands for the concentration that inhibits the measured activity by half. One may read the inhibition as the drop in the measured response relative to a control, in per cent. Low readings indicate a weak effect, high ones a strong effect.

For `Cn1ncnc1[C@H]1c2n[nH]c(=O)c3cc(F)cc(c23)N[C@@H]1c1ccc(F)cc1` [talazoparib], the tumor growth-suppressing effect entry in assay [1] (talazoparib 0.8 mg/kg oral for 5 days from Day 0, JIMT-1) is “No tumor growth-suppressing effect”.
Regarding `COc1ccc(C2=CN3C(=O)c4cc(OC)c(OCCCCCOc5cc6c(cc5OC)C(=O)N5CC7(CC7)C[C@H]5C=N6)cc4NC[C@@H]3C2)cc1` [derivative A, (11a′S)-7′-Methoxy-8′-[(5-{[(11aS)-7-methoxy-2-(4-methoxyphenyl)-5-oxo-5,10,11,11a-tetrahydro-1H-pyrrolo[2,1-c][1,4]benzodiazepin-8-yl]oxy}pentyl)oxy]-1′,11a′-dihydro-5′H-spiro[cyclopropane-1,2′-pyrrolo[2,1-c][1,4]benzodiazepine]-5′-one], the IC50 in assay [2] (read-out: IC50, growth-suppressing effect, added singly, FaDu, 6 days (test 2)) came out at 8.6 pM; in assay [2] (read-out: IC50, growth-suppressing effect, added together with 1 μM olaparib, FaDu, 6 days), 4.4 pM.
Consider `O=C(c1cc(Cc2n[nH]c(=O)c3ccccc23)ccc1F)N1CCN(C(=O)C2CC2)CC1` [olaparib, reference compound], for which the tumor growth-suppressing effect entry in assay [1] (olaparib 50 mg/kg i.p. for 5 days from Day 0, JIMT-1) is reported as “No tumor growth-suppressing effect”. The molecule further registered an inhibition at 1 µM in assay [2] (1 μM olaparib alone, 6 days) of less than 10%.
